Patent US20150353495A1 (PORTOLA PHARMACEUTICALS, INC., priority 2010, published 2015)

Assays:
JAK2 = target: T1, JAK2 (Homo sapiens, UniProt O60674); assay: Z'-LYTE kinase assay JAK2; assay type: biochemical
T1 construct: 5 μl of catalytic domain recombinant Kinase enzyme+Tyr peptide substrate (Invitrogen, CA); purchased Invitrogen
Outline: (§1)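 In duplicate wells, each test molecule (1% final DMSO) is incubated with recombinant kinase catalytic domain, Tyr6 peptide substrate and ATP for one hour at room temperature; a site-specific protease is then added for another hour before fluorescence reading.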

JAK3 = target: T2, JAK3 (Homo sapiens, UniProt P52333); assay: Z'-LYTE kinase assay JAK3; assay type: biochemical
T2 construct: 5 μl of catalytic domain recombinant Kinase enzyme+Tyr peptide substrate (Invitrogen, CA); purchased Invitrogen
T2 sequence (P52333 822-1111 limits assumed): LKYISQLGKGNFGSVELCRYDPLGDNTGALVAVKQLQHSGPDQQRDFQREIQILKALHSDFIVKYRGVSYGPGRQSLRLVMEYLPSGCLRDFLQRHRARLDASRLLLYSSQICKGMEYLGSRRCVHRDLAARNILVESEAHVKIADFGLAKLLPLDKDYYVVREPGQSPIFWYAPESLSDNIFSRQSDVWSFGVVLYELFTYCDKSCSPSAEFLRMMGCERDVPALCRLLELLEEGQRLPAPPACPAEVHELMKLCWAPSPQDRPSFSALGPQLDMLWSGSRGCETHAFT
Outline: as §1

JAK1 = target: T3, JAK1 (Homo sapiens, UniProt P23458); assay: Z'-LYTE kinase assay JAK1; assay type: biochemical
T3 construct: 5 μl of catalytic domain recombinant Kinase enzyme+Tyr peptide substrate (Invitrogen, CA); purchased Invitrogen
T3 sequence (P23458 875-1153 limits assumed): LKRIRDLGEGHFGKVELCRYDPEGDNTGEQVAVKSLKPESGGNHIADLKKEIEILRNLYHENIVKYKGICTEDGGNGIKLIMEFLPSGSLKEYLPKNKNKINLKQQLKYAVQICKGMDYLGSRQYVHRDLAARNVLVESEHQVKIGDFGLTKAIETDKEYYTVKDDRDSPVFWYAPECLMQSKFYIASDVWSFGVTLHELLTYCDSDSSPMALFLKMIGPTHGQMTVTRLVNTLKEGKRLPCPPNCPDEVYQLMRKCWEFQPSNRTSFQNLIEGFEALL
Outline: as §1

[1] = system: JAK1/3 signaling to STAT6 in Ramos B cells; assay: IL4 stimulation of JAK1/3 signaling to STAT6 in Ramos B cells (pSTAT6 Y641, FACS); assay type: cell-based; conditions: Homo sapiens; for inhibition at 1 µM: 1.0 uM compound, read-out: IL-4/STAT6 in Ramos Percent Inhibition at 1.0 uM; for inhibition at 0.2 µM: 0.2 uM compound, read-out: IL-4/STAT6 in Ramos Percent Inhibition at 0.2 uM
Description: IL4 stimulation of JAK1/3 signaling to STATE in Ramos B cells:
As an alternative strategy to measure effect of JAK3 inhibitors on JAK1/3 dependent cytokine signaling pathways, IL4 stimulation of the Ramos Burkett's B cell line is used. IL4 engages a receptor consisting of the IL4 receptor alpha chain and the common gamma chain. […] Ramos B cells are suspended in tissue culture media containing 10% fetal calf serum at 10×10̂6 cells/ml. 100 μl aliquots are pre-treated for 1 hour with various concentrations of compound, and then stimulated for 15 minutes with 15 ng IL4. The signaling reaction is terminated by fixing in 2% paraformaldehyde for 10 minutes at room temperature. Fixed cells are then washed and permeablized by suspension in 100% methanol at −80° C. Following overnight incubation at 4° C., cells are washed and resuspended in PBS containing 0.5% bovine serum albumin containing pSTAT6 Y641-PE conjugated antibody. After 1 hour incubation, cells are washed and the extent of STAT6 phosphorlyation in Ramos cells is measured by FACS analysis.

T1 sequence (O60674 849-1124 limits assumed): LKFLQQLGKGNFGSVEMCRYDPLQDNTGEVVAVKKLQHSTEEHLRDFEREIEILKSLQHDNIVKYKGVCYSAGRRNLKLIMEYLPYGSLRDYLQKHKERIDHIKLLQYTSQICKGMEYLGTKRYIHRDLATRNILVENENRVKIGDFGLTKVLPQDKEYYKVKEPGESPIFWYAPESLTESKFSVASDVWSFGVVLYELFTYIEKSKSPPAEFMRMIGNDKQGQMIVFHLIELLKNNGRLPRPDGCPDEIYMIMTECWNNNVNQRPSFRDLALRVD

Row | Compound | IC50 (JAK2) | IC50 (JAK3) | IC50 (JAK1) | inhibition at 1 µM [1] | inhibition at 0.2 µM [1]
1 | NC(=O)c1cnc(Nc2cccc(N3CCCCC3)c2)cc1NCc1cccc(F)c1 [Example 68, 4-(3-fluorobenzylamino)-6-(3-(piperidin-1-yl)phenylamino)nicotinamide] | 100 to 1000 nM | 10 to 100 nM | > 1000 nM | 7% | –
2 | NC(=O)c1cnc(Nc2cccc(N3CCCCC3)c2)cc1N[C@H](CO)c1ccccc1 [Example 76, (S)-4-(2-hydroxy-1-phenylethylamino)-6-(3-(piperidin-1-yl)phenylamino)nicotinamide] | > 1000 nM | 10 to 100 nM | > 1000 nM | 20% | 8%
3 | COc1ccc(Nc2cc(NCc3c(F)cccc3F)c(C(N)=O)cn2)cc1 [Example 82, 4-(2,6-difluorobenzylamino)-6-(4-methoxyphenylamino)nicotinamide] | 100 to 1000 nM | 10 to 100 nM | 100 to 1000 nM | 34% | 7%
4 | COc1ccc(Nc2cc(NCc3cc(F)ccc3F)c(C(N)=O)cn2)cc1 [Example 83, 4-(2,5-difluorobenzylamino)-6-(4-methoxyphenylamino)nicotinamide] | 100 to 1000 nM | 10 to 100 nM | 100 to 1000 nM | 23% | 10%
5 | NC(=O)c1cnc(Nc2ccc3c(c2)NC(=O)CO3)cc1NCc1ccccc1 [Example 84, 4-(benzylamino)-6-(3-oxo-3,4-dihydro-2H-benzo[b][1,4]oxazin-6-ylamino)nicotinamide] | 100 to 1000 nM | 10 to 100 nM | > 1000 nM | 8% | 3%
6 | COc1ccc(Nc2cc(NCc3cccc(F)c3)c(C(N)=O)cn2)cc1 [Example 91, 4-(3-fluorobenzylamino)-6-(4-methoxyphenylamino)nicotinamide] | 100 to 1000 nM | 10 to 100 nM | > 1000 nM | 16% | 6%
7 | NC(=O)c1cnc(Nc2cccc(OCCN3CCOCC3)c2)cc1NC(CO)c1ccccc1 (centres unmarked) [Example 230] | – | – | – | 36% | 21%
8 | CC(=O)N1CCN(c2ccc(Nc3cc(NC(CO)c4ccccc4)c(C(N)=O)cn3)cc2)CC1 (centres unmarked) [Example 231] | – | – | – | 16% | 13%
9 | NC(=O)c1cnc(Nc2cccc(NC(=O)N3CCOCC3)c2)cc1NCc1cccnc1 [Example 232] | – | – | – | 5% | 4%

More lines, main results first:

Row | IC50 (JAK2) | IC50 (JAK3) | IC50 (JAK1) | Compound | inhibition at 1 µM [1] | inhibition at 0.2 µM [1]
10 | 10 to 100 nM | 1 to 10 nM | 10 to 100 nM | NC(=O)c1cnc(Nc2ccc(C(=O)N3CCC3)cc2)cc1NCc1cc(F)ccc1F [Example 93, 6-(4-(azetidine-1-carbonyl)phenylamino)-4-(2,5-difluorobenzylamino)nicotinamide] | 76% | 43%
11 | 10 to 100 nM | 1 to 10 nM | 100 to 1000 nM | CC(C)N1CCC(c2ccc(Nc3cc(NCc4ccccc4F)c(C(N)=O)cn3)cc2)CC1 [Example 108, 4-(2-fluorobenzylamino)-6-(4-(1-isopropylpiperidin-4-yl)phenylamino)nicotinamide] | 37% | 14%
12 | 10 to 100 nM | 1 to 10 nM | 100 to 1000 nM | NC(=O)c1cnc(Nc2cccc(C3CCN(C4CCCC4)CC3)c2)cc1NCc1ccccc1F [Example 110, 6-(3-(1-cyclopentylpiperidin-4-yl)phenylamino)-4-(2-fluorobenzylamino)nicotinamide] | 68% | 24%
13 | > 1000 nM | 10 to 100 nM | > 1000 nM | CS(=O)(=O)N1CCC(c2ccc(Nc3cc(NCc4ccccc4F)c(C(N)=O)cn3)cc2)CC1 [Example 111, 4-(2-fluorobenzylamino)-6-(4-(1-(methylsulfonyl)piperidin-4-yl)phenylamino)nicotinamide] | 46% | 22%
14 | > 1000 nM | 10 to 100 nM | > 1000 nM | CCS(=O)(=O)N1CCC(c2ccc(Nc3cc(NCc4ccccc4F)c(C(N)=O)cn3)cc2)CC1 [Example 112, 6-(4-(1-(ethylsulfonyl)piperidin-4-yl)phenylamino)-4-(2-fluorobenzylamino)nicotinamide] | 42% | 8%
15 | 100 to 1000 nM | 10 to 100 nM | > 1000 nM | CN(C)C(=O)N1CCC(c2ccc(Nc3cc(NCc4ccccc4F)c(C(N)=O)cn3)cc2)CC1 [Example 114, 6-(4-(1-(dimethylcarbamoyl)piperidin-4-yl)phenylamino)-4-(2-fluorobenzylamino)nicotinamide] | 51% | 14%
16 | 100 to 1000 nM | 10 to 100 nM | 100 to 1000 nM | CCC(=O)N1CC(c2ccc(Nc3cc(NCc4cccc(F)n4)c(C(N)=O)cn3)cc2)C1 [Example 490, 4-((6-fluoropyridin-2-yl)methylamino)-6-(4-(1-propionylazetidin-3-yl)phenylamino)nicotinamide] | – | –
17 | 10 to 100 nM | 1 to 10 nM | 100 to 1000 nM | CCC(=O)N1CC(c2ccc(Nc3cc(NCc4cccc5ccsc45)c(C(N)=O)cn3)cc2)C1 [Example 491, 4-(benzo[b]thiophen-7-ylmethylamino)-6-(4-(1-propionylazetidin-3-yl)phenylamino)nicotinamide] | – | –
18 | 1 to 10 nM | 1 to 10 nM | 10 to 100 nM | CCC(=O)N1CC(c2ccc(Nc3cc(NCc4cccc5[nH]ccc45)c(C(N)=O)cn3)cc2)C1 [Example 492, 4-((1H-indol-4-yl)methylamino)-6-(4-(1-propionylazetidin-3-yl)phenylamino)nicotinamide] | – | –
19 | 100 to 1000 nM | 10 to 100 nM | 100 to 1000 nM | COCC(=O)N1CC(c2ccc(Nc3cc(NCc4cccc(F)n4)c(C(N)=O)cn3)cc2)C1 [Example 493, 4-((6-fluoropyridin-2-yl)methylamino)-6-(4-(1-(2-methoxyacetyl)azetidin-3-yl)phenylamino)nicotinamide] | – | –
20 | 1 to 10 nM | < 1 nM | 1 to 10 nM | COCC(=O)N1CC(c2ccc(Nc3cc(NCc4cccc5[nH]ccc45)c(C(N)=O)cn3)cc2)C1 [Example 494, 4-((1H-indol-4-yl)methylamino)-6-(4-(1-(2-methoxyacetyl)azetidin-3-yl)phenylamino)nicotinamide] | – | –
21 | 10 to 100 nM | 1 to 10 nM | 100 to 1000 nM | COCC(=O)N1CC(c2ccc(Nc3cc(NCc4cccc5ccsc45)c(C(N)=O)cn3)cc2)C1 [Example 495, 4-(benzo[b]thiophen-7-ylmethylamino)-6-(4-(1-(2-methoxyacetyl)azetidin-3-yl)phenylamino)nicotinamide] | – | –
